From patent publication US20220233550A1, “PARP INHIBITOR PELLET PREPARATION AND PREPARATION PROCESS THEREFOR” (BEIGENE, LTD., priority 2019, published 2022)

Key:
[1] = cited from earlier work
PARP = conditions: compared with Olaparib and other PARP inhibitors (such as Veliparib); cited from earlier work
[2] = Fluidity, judged from electron microscope images; type: physicochemical; conditions: electron microscope image, FIG. 1 / FIG. 2
Description: FIG. 1 of the description is an electron microscope image of the drug substance Pamiparib, and since the drug substance BGB290 contains crystal water, is very easily agglomerated, and has a poor fluidity, which is not conducive to capsule filling, thereby affecting the industrialized mass production of a formulation. In addition, FIG. 2 of the description is an electron microscope image of the pellets of Example 1. It can be seen from the image that the pellets are round in shape, can be evenly spread under the field of view of an electron microscope, and has a good fluidity. It is sufficient to fulfil the filling of the capsule.

PARP-1/2 = conditions: cited from earlier work
[3] = test system: BRCA variant in vitro xenograft model; conditions: vs Olaparib; cited from earlier work
[4] = sesquihydrate; cited from earlier work
CYP = conditions: cited from earlier work
[5] = rodents; cited from earlier work
[6] = test system: cell lines with BRCA1/2 mutations or other HR defects; conditions: cited from earlier work

| fluidity [2] | SMILES | brain permeability [1] | DNA capture activity (PARP) | PARP1/2 selectivity (PARP-1/2; compared with Olaparib and other PARP inhibitors (such as Veliparib)) | activity relative to Olaparib [3] | chemical stability [4] | CYP inhibitory activity (CYP) | tolerance [5] | treatment window [5] | selectivity for PARP-1/2 (PARP-1/2; free compound of WO 2013/097225A1) | inhibition of proliferation [6] |
| --- | --- | --- | --- | --- | --- | --- | --- | --- | --- | --- | --- |
| poor fluidity | C[C@]12CCCN1CC1=NNC(=O)c3cc(F)cc4[nH]c2c1c34 [Pamiparib, (R)-2-fluoro-10a-methyl-7,8,9,10,10a,11-hexahydro-5,6,7a,11-tetraazacyclohepta[def]cyclopenta[a]fluoren-4(5H)-one sesquihydrate] | significant brain permeability | stronger DNA capture activity | better PARP1/2 selectivity | about 16 times | excellent chemical stability | no CYP inhibitory activity | good tolerance | about 10 folds | – | – |
| – | C[C@]12CCCN1CC1=NNC(=O)c3cc(F)cc4[nH]c2c1c34 [drawing 1, (R)-2-fluoro-10a-methyl-7,8,9,10,10a,11-hexahydro-5,6,7a,11-tetraazacyclohepta[def]cyclopenta[a]fluoren-4(5H)-one] | – | – | – | – | – | – | – | – | high selectivity for PARP-1/2 | can effectively inhibit the proliferation |
